Data as given in patent US8148391B2 (Cephalon, Inc., priority 2006, dated 2012).
Read-outs that look alike come from different tables or passages of the source.

Assays:
[1] = molecular target: T1, baculovirus-expressed ALK (Homo sapiens, UniProt Q9UM73); test: ALK Kinase Assay (ELISA-type, time-resolved fluorescence); assay type: biochemical
T1 construct: host or cells: baculovirus expression system
Description: (§1) Briefly, each 96-well plate was coated with 100 μL/well of 10 μg/mL substrate (phospholipase C-γ) in Tris-buffered saline (TBS). […] The reaction was initiated by adding enzyme (30 ng/ml ALK) and was allowed to proceed at 37° C. for 15 minutes. Detection of the phosphorylated product was performed by adding 100 μl/well of Eu-N1 labeled PT66 antibody (Perkin Elmer # AD0041).
(§2) Data analysis was performed using ActivityBase (IDBS, Guilford, UK). IC50 values were calculated by plotting percent inhibition versus log10 of the concentration of compound and fitting to the nonlinear regression sigmoidal dose-response (variable slope) equation in XLFit (IDBS, Guilford, UK).

[2] = molecular target: T2, c-Met (cytoplasmic domain) (Homo sapiens, UniProt P08581); test: c-Met Kinase Assay (same methods as for ALK, with modifications); assay type: biochemical
T2 construct: 10 ng/mL c-Met (cytoplasmic domain, Invitrogen Corporation #PV3143); purchased Invitrogen Corporation PV3143
T2 sequence (P08581 956-1390 limits assumed): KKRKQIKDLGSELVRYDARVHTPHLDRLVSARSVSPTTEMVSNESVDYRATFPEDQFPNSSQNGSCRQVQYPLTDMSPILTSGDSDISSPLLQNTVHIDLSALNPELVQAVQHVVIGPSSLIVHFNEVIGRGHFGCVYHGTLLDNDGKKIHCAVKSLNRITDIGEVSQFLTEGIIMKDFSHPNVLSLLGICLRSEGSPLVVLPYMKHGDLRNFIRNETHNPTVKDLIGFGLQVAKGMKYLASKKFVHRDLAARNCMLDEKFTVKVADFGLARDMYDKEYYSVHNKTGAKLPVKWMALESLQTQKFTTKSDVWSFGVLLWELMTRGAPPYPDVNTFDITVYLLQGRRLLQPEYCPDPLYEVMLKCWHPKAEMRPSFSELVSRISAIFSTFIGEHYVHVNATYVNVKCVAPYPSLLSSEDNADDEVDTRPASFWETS
Description: as §1, §2
Reactions were initiated with 10 ng/mL c-Met (cytoplasmic domain, Invitrogen Corporation #PV3143).

[3] = 1 μM ATP (Km level), 30 ng/ml ALK, 37° C., 15 minutes, read-out: ALK Activity (ALK kinase inhibition, IC50 class)
[4] = 1 μM ATP (Km level), 10 ng/mL c-Met, read-out: cMet Activity (c-Met kinase inhibition, IC50 class)
[5] = ALK kinase inhibition, 1 μM ATP (Km level), read-out: ALK Activity
[6] = c-Met kinase inhibition, 1 μM ATP (Km level), read-out: cMet Activity
[7] = 1 μM ATP (Km level), read-out: ALK Activity (ALK Kinase Inhibition, IC50)
[8] = 1 μM ATP (Km level), read-out: cMet Activity (c-Met Kinase Inhibition, IC50)
[9] = ALK kinase inhibition, 1 μM ATP, read-out: ALK Activity
[10] = c-Met kinase inhibition, 1 μM ATP, read-out: cMet Activity

T1 sequence (Q9UM73 19-1620): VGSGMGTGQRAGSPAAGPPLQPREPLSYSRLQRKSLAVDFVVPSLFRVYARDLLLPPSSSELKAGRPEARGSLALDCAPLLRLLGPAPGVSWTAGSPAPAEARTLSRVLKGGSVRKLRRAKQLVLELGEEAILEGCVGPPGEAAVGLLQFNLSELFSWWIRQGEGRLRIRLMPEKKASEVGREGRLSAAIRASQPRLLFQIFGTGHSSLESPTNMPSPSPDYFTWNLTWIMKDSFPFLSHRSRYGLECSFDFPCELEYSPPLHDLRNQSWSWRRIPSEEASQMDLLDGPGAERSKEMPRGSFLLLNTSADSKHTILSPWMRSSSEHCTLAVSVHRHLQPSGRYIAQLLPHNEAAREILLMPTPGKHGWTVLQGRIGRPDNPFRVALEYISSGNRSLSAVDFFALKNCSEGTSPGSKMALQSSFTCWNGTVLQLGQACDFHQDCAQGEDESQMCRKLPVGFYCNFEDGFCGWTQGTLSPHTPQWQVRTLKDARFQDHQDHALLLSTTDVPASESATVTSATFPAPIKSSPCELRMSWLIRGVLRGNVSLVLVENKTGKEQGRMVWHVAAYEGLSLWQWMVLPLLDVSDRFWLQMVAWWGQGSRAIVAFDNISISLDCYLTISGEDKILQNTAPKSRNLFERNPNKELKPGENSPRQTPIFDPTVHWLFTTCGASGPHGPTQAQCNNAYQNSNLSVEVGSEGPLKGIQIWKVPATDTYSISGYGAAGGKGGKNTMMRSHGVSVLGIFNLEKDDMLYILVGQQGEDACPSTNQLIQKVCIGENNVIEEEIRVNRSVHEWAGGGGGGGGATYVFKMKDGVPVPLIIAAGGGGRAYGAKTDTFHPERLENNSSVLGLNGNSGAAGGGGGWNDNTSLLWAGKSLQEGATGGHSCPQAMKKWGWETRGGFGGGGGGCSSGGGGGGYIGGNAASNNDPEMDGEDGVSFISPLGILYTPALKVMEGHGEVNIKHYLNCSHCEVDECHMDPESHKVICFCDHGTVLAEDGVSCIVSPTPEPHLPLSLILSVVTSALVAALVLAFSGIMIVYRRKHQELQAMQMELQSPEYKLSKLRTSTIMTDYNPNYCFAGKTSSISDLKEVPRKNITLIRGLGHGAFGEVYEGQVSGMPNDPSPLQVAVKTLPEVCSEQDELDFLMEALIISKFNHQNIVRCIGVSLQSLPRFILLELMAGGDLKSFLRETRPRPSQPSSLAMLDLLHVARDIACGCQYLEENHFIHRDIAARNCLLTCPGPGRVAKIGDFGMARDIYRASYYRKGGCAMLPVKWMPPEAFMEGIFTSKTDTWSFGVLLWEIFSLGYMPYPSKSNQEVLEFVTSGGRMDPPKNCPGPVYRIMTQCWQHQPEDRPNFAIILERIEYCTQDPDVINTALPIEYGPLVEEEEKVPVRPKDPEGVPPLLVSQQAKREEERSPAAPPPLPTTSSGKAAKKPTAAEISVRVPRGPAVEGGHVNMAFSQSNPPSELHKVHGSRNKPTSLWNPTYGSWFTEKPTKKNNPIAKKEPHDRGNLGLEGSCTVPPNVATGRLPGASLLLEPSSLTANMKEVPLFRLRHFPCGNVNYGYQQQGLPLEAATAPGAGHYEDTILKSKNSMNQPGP

IC50 [1, 3] | IC50 [2, 4] | IC50 [1, 7] | IC50 [2, 8] | also measured | SMILES
0.1 to 1 µM | 1 to 10 µM |  |  |  | CN(CCC#N)c1cccc(F)c1Nc1nc(Nc2ccc3c(c2)C(C)(C)CCC(=O)N3)ncc1Cl [Example 1267, 3-({2-[5-Chloro-2-(5,5-dimethyl-2-oxo-2,3,4,5-tetrahydro-1H-1-benzazepin-7-ylamino)-pyrimidin-4-ylamino]-3-fluoro-phenyl}-methyl-amino)-propionitrile]
< 0.1 µM | < 0.1 µM |  |  |  | CCOC(=O)N1CCCOc2cc(Nc3ncc(Cl)c(Nc4ccccc4C(=O)NC)n3)ccc21 [Example 1419, 3-[5-Chloro-4-(2-methylcarbamoyl-phenylamino)-pyrimidin-2-ylamino]-7,8-dihydro-6H-5-oxa-9-aza-benzocycloheptene-9-carboxylic acid ethyl ester]
 |  |  |  | IC50 [1, 5]: < 0.1 µM; IC50 [2, 6]: > 10 µM | COc1c(Nc2ncc(Cl)c(N[C@@H]3CCCC[C@H]3NS(C)(=O)=O)n2)ccc2c1CCCC(=O)N2C [Example 118, N-{(1R,2R)-2-[5-Chloro-2-(6-methoxy-1-methyl-2-oxo-2,3,4,5-tetrahydro-1H-benzo[b]azepin-7-ylamino)-pyrimidin-4-ylamino]-cyclohexyl}-methanesulfonamide]
0.1 to 1 µM | 0.1 to 1 µM |  |  |  | CNC(=O)c1sccc1Nc1nc(Nc2ccc3c(c2)OCCCN3C(=O)OCCCN(C)C)ncc1Cl [Example 1428, 3-[5-Chloro-4-(2-methylcarbamoyl-thiophen-3-ylamino)-pyrimidin-2-ylamino]-7,8-dihydro-6H-5-oxa-9-aza-benzocycloheptene-9-carboxylic acid 3-dimethylamino-propyl ester]
< 0.1 µM | 1 to 10 µM |  |  |  | CC(C)S(=O)(=O)c1cccc(F)c1Nc1nc(Nc2ccc3c(c2)C(C)(C)CCC(=O)N3)ncc1Cl [Example 1254, 7-{5-Chloro-4-[2-fluoro-6-(propane-2-sulfonyl)-phenylamino]-pyrimidin-2-ylamino}-5,5-dimethyl-1,3,4,5-tetrahydro-1-benzazepin-2-one]
0.1 to 1 µM | 0.1 to 1 µM |  |  |  | C#CCNC(=O)c1cccc(F)c1Nc1nc(Nc2ccc3c(c2)NC(=O)CCC3)ncc1Cl [Example 1404, 2-[5-Chloro-2-(2-oxo-2,3,4,5-tetrahydro-1H-benzo[b]azepin-8-ylamino)-pyrimidin-4-ylamino]-3-fluoro-N-prop-2-ynyl-benzamide]
 |  | < 0.1 µM | < 0.1 µM |  | CN1C(=O)CCCc2cc(Nc3ncc(Cl)c(Nc4ccccc4C(=O)NCCC#N)n3)ccc21 [Example 871, 2-[5-Chloro-2-(1-methyl-2-oxo-2,3,4,5-tetrahydro-1H-benzo[b]azepin-7-ylamino)-pyrimidin-4-ylamino]-N-(2-cyano-ethyl)-benzamide]
 |  |  |  | IC50 [1, 9]: 0.1 to 1 µM; IC50 [2, 10]: > 10 µM | COc1cc(N2CCOCC2)ccc1Nc1nc(Nc2ccc3c(c2)N(C(C)C)CCCC3(C)C)ncc1Cl [Example 1629, 5-Chloro-N*2*-(1-isopropyl-5,5-dimethyl-2,3,4,5-tetrahydro-1H-benzo[b]azepin-8-yl)-N*4*-(2-methoxy-4-morpholin-4-yl-phenyl)-pyrimidine-2,4-diamine]
 |  | 1 to 10 µM | > 10 µM |  | COc1ccc(Nc2ncc(Cl)c(Nc3ccccc3S(=O)(=O)N(C)C)n2)c2c1CCCC(N1CCOCC1)C2 (stereo not shown) [Example 945, 2-[5-Chloro-2-(4-methoxy-8-morpholin-4-yl-6,7,8,9-tetrahydro-5H-benzocyclohepten-1-ylamino)-pyrimidin-4-ylamino]-N,N-dimethyl-benzenesulfonamide]
 |  |  |  | IC50 [1, 5]: < 0.1 µM; IC50 [2, 6]: > 10 µM | CCN1C(=O)C(C)(C)CCc2c1ccc(Nc1ncc(Cl)c(N[C@@H]3CCCC[C@H]3NS(C)(=O)=O)n1)c2OC [Example 143, N-{(1R,2R)-2-[5-Chloro-2-(1-ethyl-6-methoxy-3,3-dimethyl-2-oxo-2,3,4,5-tetrahydro-1H-benzo[b]azepin-7-ylamino)-pyrimidin-4-ylamino]-cyclohexyl}-methanesulfonamide]
 |  | 0.1 to 1 µM | 1 to 10 µM |  | COCCN1CCc2ccc(Nc3ncc(Cl)c(Nc4cccc5c4ncn5C)n3)cc2CC1 [Example 1006, 5-Chloro-N*2*-[3-(2-methoxy-ethyl)-2,3,4,5-tetrahydro-1H-benzo[d]azepin-7-yl]-N*4*-(1-methyl-1H-benzoimidazol-4-yl)-pyrimidine-2,4-diamine]
< 0.1 µM | > 10 µM |  |  |  | CNC(=O)c1ccc(Nc2nc(Nc3cc4c(cc3OC)CCN(C(COC)COC)CC4)ncc2Cl)c(OC)c1 [Example 1177, 4-{5-Chloro-2-[8-methoxy-3-(2-methoxy-1-methoxymethyl-ethyl)-2,3,4,5-tetrahydro-1H-benzo[d]azepin-7-ylamino]-pyrimidin-4-ylamino}-3-methoxy-N-methyl-benzamide]
 |  | < 0.1 µM | 0.1 to 1 µM |  | Cn1ccnc1-c1ccccc1Nc1nc(Nc2ccc3c(c2)CCC(NCC(F)(F)F)CC3)ncc1Cl (stereo not shown) [Example 655, 5-Chloro-N*4*-[2-(1-methyl-1H-imidazol-2-yl)-phenyl]-N*2*-[7-(2,2,2-trifluoro-ethylamino)-6,7,8,9-tetrahydro-5H-benzocyclohepten-2-yl]-pyrimidine-2,4-diamine]
 |  | < 0.1 µM | > 10 µM |  | COCCN(C)C1CCc2ccc(Nc3ncc(Cl)c(N[C@H]4[C@@H](C(N)=O)[C@@H]5C=C[C@H]4C5)n3)c(OC)c2CC1 (single isomer, unassigned) [Example 701]
 |  |  |  | IC50 [1, 9]: 1 to 10 µM; IC50 [2, 10]: < 0.1 µM | CNCc1ccccc1Nc1nc(Nc2ccc3c(c2)CN(C)C(=O)CC3)ncc1Cl [Example 1808, 8-[5-Chloro-4-(2-methylaminomethyl-phenylamino)-pyrimidin-2-ylamino]-2-methyl-1,2,4,5-tetrahydro-benzo[c]azepin-3-one]
 |  | < 0.1 µM | > 10 µM |  | COCCN1CCc2cc(Nc3ncc(Cl)c(Nc4ccc(Cl)cc4S(=O)(=O)N(C)C)n3)c(OC)cc2CC1 [Example 839, 5-Chloro-2-{5-chloro-2-[8-methoxy-3-(2-methoxy-ethyl)-2,3,4,5-tetrahydro-1H-benzo[d]azepin-7-ylamino]-pyrimidin-4-ylamino}-N,N-dimethyl-benzenesulfonamide]
 |  |  |  | IC50 [1, 5]: < 0.1 µM; IC50 [2, 6]: > 10 µM | CCN1C(=O)CCCc2c1ccc(Nc1ncc(Cl)c(N[C@H]3CCC[C@H]3C(=O)NC)n1)c2OC (relative stereo) [Example 373, cis-2-[5-Chloro-2-(1-ethyl-6-methoxy-2-oxo-2,3,4,5-tetrahydro-1H-benzo[b]azepin-7-ylamino)-pyrimidin-4-ylamino]-cyclopentanecarboxylic acid methylamide]
1 to 10 µM | > 10 µM |  |  |  | COCCN1CCc2ccc(Nc3ncc(Cl)c(N[C@@H]4CCC[C@H](NS(C)(=O)=O)C4)n3)cc2CC1 (relative stereo) [Example 1380, rel-N-((1S,3R)-3-{5-Chloro-2-[3-(2-methoxy-ethyl)-2,3,4,5-tetrahydro-1H-benzo[d]azepin-7-ylamino]-pyrimidin-4-ylamino}-cyclohexyl)-methanesulfonamide]
 |  | < 0.1 µM | > 10 µM |  | COc1cc2c(cc1Nc1ncc(Cl)c(Nc3ccc(Cl)cc3S(=O)(=O)N(C)C)n1)CCN(CC(=O)N1CCN(C)CC1)CC2 [Example 842, 5-Chloro-2-(5-chloro-2-{8-methoxy-3-[2-(4-methyl-piperazin-1-yl)-2-oxo-ethyl]-2,3,4,5-tetrahydro-1H-benzo[d]azepin-7-ylamino}-pyrimidin-4-ylamino)-N,N-dimethyl-benzenesulfonamide]
< 0.1 µM | > 10 µM |  |  |  | CNC(=O)c1cc(N(C)C)ccc1Nc1nc(Nc2cc3c(cc2OC)CCN(CC(=O)N(C)C)CC3)ncc1Cl [Example 1185, 2-[5-Chloro-2-(3-dimethylcarbamoylmethyl-8-methoxy-2,3,4,5-tetrahydro-1H-benzo[d]azepin-7-ylamino)-pyrimidin-4-ylamino]-5-dimethylamino-N-methyl-benzamide]
 |  |  |  | IC50 [1, 9]: 0.1 to 1 µM; IC50 [2, 10]: < 0.1 µM | CNC(=O)c1scc(C)c1Nc1nc(Nc2ccc3c(c2)-n2ccnc2CCC3)ncc1Cl [Example 1838, 3-[5-Chloro-2-(5,6-dihydro-4H-3,10b-diaza-benzo[e]azulen-9-ylamino)-pyrimidin-4-ylamino]-4-methyl-thiophene-2-carboxylic acid methylamide]
 |  | < 0.1 µM | 0.1 to 1 µM |  | CNC(=O)c1cc(OC)ccc1Nc1nc(Nc2ccc3c(c2)C(C)(C)CCC(=O)N3)ncc1Cl [Example 609, 2-[5-Chloro-2-(5,5-dimethyl-2-oxo-2,3,4,5-tetrahydro-1H-benzo[b]azepin-7-ylamino)-pyrimidin-4-ylamino]-5-methoxy-N-methyl-benzamide]
 |  | 0.1 to 1 µM | > 10 µM |  | CC(C)S(=O)(=O)c1ccccc1Nc1nc(Nc2cccc3c2OCCCC3(C)C)ncc1Cl [Example 878, 5-Chloro-N*2*-(5,5-dimethyl-2,3,4,5-tetrahydro-benzo[b]oxepin-9-yl)-N*4*-[2-(propane-2-sulfonyl)-phenyl]-pyrimidine-2,4-diamine]
